In patent US12435057B2, “Triazole carboxylic acids as LPA antagonists” (BRISTOL-MYERS SQUIBB COMPANY, priority 2019, dated 2025) one finds IC50 data, which are given here for 41 compounds.

Counter-ions that a name gives are not always drawn.

The experiment deals with T1, human LPA1 (Homo sapiens, UniProt Q92633).
T1 construct: expressed in transfected cells; host or cells: Chinese hamster ovary (CHO) cells
Briefly: LPA1 functional antagonist assay (calcium flux). It counts as cell-based. To be noted: CHO cells overexpressing human LPA1; inhibition of calcium flux induced by 10 nM LPA; read-out: hLPA1 IC50. How it is done:
The effectiveness of compounds of the present invention as LPA1 inhibitors can be determined in an LPA1 functional antagonist assay as follows: • Chinese hamster ovary cells overexpressing human LPA1 were plated overnight (15,000 cells/well) in poly-D-lysine coated 384-well microplates (Greiner bio-one, Cat #781946) in DMEM/F12 medium (Gibco, Cat #11039). Following overnight culture, cells were loaded with calcium indicator dye (AAT Bioquest Inc, Cat #34601) for 30 minutes at 37° C. The cells were then equilibrated to room temperature for 30 minutes before the assay. Test compounds solubilized in DMSO were transferred to 384 well non-binding surface plates (Corning, Cat #3575) using the Labcyte Echo acoustic dispense and diluted with assay buffer [[…] with calcium/magnesium (Gibco Cat #14025-092), 20 mM HEPES (Gibco Cat #15630-080) and 0.1% fatty acid free BSA (Sigma Cat #A9205)] to a final concentration of 0.5% DMSO. Diluted compounds were added to the cells by FDSS6000 (Hamamatsu) at final concentrations ranging from 0.08 nM to 5 μM. and were then incubated for 20 min at room temperature at which time LPA (Avanti Polar Lipids Cat #857130C) was added at final concentrations of 10 nM to stimulate the cells. The compound IC50 value was defined as the concentration of test compound which inhibited 50% of the calcium flux induced by LPA alone. IC50 values were determined by fitting data to a 4-parameter logistic equation (GraphPad Prism, San Diego CA). b. In Vivo Assays LPA Challenge with Plasma Histamine Evaluation.
For orientation: Calcium assays in cells follow changes in intracellular calcium, usually with a dye or a luminescent sensor.

T1 sequence (Q92633 whole entry): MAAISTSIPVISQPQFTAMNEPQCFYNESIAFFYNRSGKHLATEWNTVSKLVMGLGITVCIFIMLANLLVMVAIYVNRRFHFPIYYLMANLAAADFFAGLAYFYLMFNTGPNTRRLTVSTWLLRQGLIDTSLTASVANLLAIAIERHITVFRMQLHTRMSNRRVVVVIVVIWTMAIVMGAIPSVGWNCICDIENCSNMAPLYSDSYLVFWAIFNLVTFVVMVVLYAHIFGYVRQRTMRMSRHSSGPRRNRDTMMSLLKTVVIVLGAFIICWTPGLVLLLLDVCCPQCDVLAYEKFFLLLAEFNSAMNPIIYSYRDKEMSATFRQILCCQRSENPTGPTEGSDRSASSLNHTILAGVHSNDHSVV

As a reminder, the IC50 is the concentration that gives 50% inhibition. Take `CN(C(=O)OCc1c(-c2ccc(O[C@@H]3CC[C@H]4C(C(=O)O)[C@@H]34)cn2)nnn1C)C1CCCC1` (some centres unmarked) [Example 71]: the IC50 amounted to 114 nM.

In the case of `Cc1nc(-c2nnn(C)c2COC(=O)N(C)CC2CCC2)ccc1O[C@H]1CC2C[C@H]2[C@@H](C(=O)O)C1` (mixture of isomers) [Example 7, (±)-(1R,2S,4S,6R)-4-((6-(5-((((cyclobutylmethyl)(methyl)carbamoyl)oxy)methyl)-1-methyl-1H-1,2,3-triazol-4-yl)-2-methylpyridin-3-yl)oxy)bicyclo[4.1.0]heptane-2-carboxylic Acid], the IC50 is 40 nM.

As for `Cc1nc(-c2nnn(C)c2COC(=O)N(C)CC2CCC2)ccc1O[C@@H]1CCC[C@@]2(C(=O)O)C[C@@H]12` (single isomer, unassigned) [Example 11], the IC50 stood at 130 nM.

For the compound `Cc1nc(-c2nnn(C)c2COC(=O)N(C)CC2CCC2)ccc1O[C@H]1CC2C[C@H]2[C@H](C(=O)O)C1` (single isomer, unassigned) [Example 5], the IC50 came to 28 nM.

For `CCCCCN(C)C(=O)OCc1c(-c2ccc(O[C@@H]3COC[C@@H](C(=O)O)C3)c(C)n2)nnn1C` [Example 19], the IC50 was found to be 151 nM.

For `CCCCCN(C)C(=O)OCc1c(-c2ccc(O[C@H]3COC[C@@H](C(=O)O)C3)c(C)n2)nnn1C` [Example 31], the IC50 came out at 2.29 nM.

Take `Cc1nc(-c2nnn(C)c2COC(=O)N(C)CC2CCC2)ccc1O[C@@H]1CC[C@H]2C(C(=O)O)[C@@H]12` (single isomer, unassigned) [Example 44, TFA Salt]: the IC50 was found to be 65 nM.

Take `Cc1nc(-c2nnn(C)c2COC(=O)N(C)CC2CCC2)ccc1O[C@@H]1CC[C@H]2C(C(=O)O)[C@@H]12` (single isomer, unassigned) [Example 45]: the half-inhibitory concentration (IC50) was found to be 92 nM.

As for `CCCCN(C)C(=O)OCc1c(-c2ccc(O[C@@H]3CC[C@H]4C(C(=O)O)[C@@H]34)c(C)n2)nnn1C` (some centres unmarked) [Example 58], the IC50 turned out to be 46 nM.

Take `CCCCOC(=O)NCc1c(-c2ccc(O[C@@H]3CCC4C(C(=O)O)C43)c(C)n2)nnn1C` (some centres unmarked) [Example 56]: the IC50 came to 155 nM.

Turning to `CN(C(=O)OCc1c(-c2ccc(OC3CCCC4C(C(=O)O)C34)cn2)nnn1C)C1CCCC1` (racemic) [Example 74, (±)-2-((6-(5-(((Cyclopentyl(methyl)carbamoyl)oxy)methyl)-1-methyl-1H-1,2,3-triazol-4-yl)pyridin-3-yl)oxy)bicyclo[4.1.0]heptane-7-carboxylic Acid], the IC50 came to 60 nM.

Take `Cc1nc(-c2nnn(C)c2COC(=O)N(C)CCC(C)C)ccc1O[C@@H]1COC[C@@H](C(=O)O)C1` [Example 20]: the IC50 is 222 nM.

As for `Cc1nc(-c2nnn(C)c2CNC(=O)OCc2ccccc2)ccc1O[C@@H]1CCC2C(C(=O)O)C21` (some centres unmarked) [Example 53], the IC50 was determined as 16 nM.

`CCCCN(C)C(=O)OCc1c(-c2ccc(O[C@H]3CCO[C@H](C(=O)O)C3)c(C)n2)nnn1C` [Example 37]: the IC50 was found to be 225 nM.

On to `Cc1nc(-c2nnn(C)c2CNc2noc(CC3CC3)n2)ccc1O[C@H]1C[C@H](C(=O)O)[C@@H]2C[C@@H]21` [Example 15], for which the IC50 worked out at 1050 nM.

Consider `Cc1nc(-c2nnn(C)c2CNc2nccc(OC3CC3)n2)ccc1OC1CC[C@H]2C(C(=O)O)[C@@H]12` (mixture of isomers) [Example 50, (±)-(1S,2R,5R,6R)-2-((6-(5-(((4-Cyclopropoxypyrimidin-2-yl)amino)methyl)-1-methyl-1H-1,2,3-triazol-4-yl)-2-methylpyridin-3-yl)oxy)bicyclo[3.1.0]hexane-6-carboxylic Acid], for which the IC50 is 105 nM.

Take `Cc1nc(-c2nnn(C)c2COC(=O)N(C)CC2CCC2)ccc1O[C@@H]1CC2C[C@H]2[C@H](C(=O)O)C1` (single isomer, unassigned) [Example 3]: the IC50 came out at 16 nM.

Consider `Cc1nc(-c2nnn(C)c2CNC(=O)OC2CCCC2)ccc1O[C@@H]1CCC2C(C(=O)O)C21` (some centres unmarked) [Example 55], for which the IC50 came to 83 nM.

As for `Cc1nc(-c2nnn(C)c2COC(=O)N(C)CC2CCC2)ccc1O[C@H]1COC[C@@H](C(=O)O)C1` [Example 32], the 50% inhibitory concentration (IC50) worked out at 348 nM.

Consider `Cc1nc(-c2nnn(C)c2COC(=O)N(C)CC2CCC2)ccc1OC1CC2C(C1)C2C(=O)O` (centres unmarked) [Example 67], for which the IC50 came out at 262 nM.

For the compound `Cc1nc(-c2nnn(C)c2COC(=O)N(C)CC2CCC2)ccc1O[C@@H]1CC[C@H]2[C@@H](C(=O)O)[C@H]21` (racemic) [Example 49, (±)-(1S,2R,5R,6R)-2-((6-(5-((((Cyclobutylmethyl)(methyl)carbamoyl)oxy)methyl)-1-methyl-1H-1,2,3-triazol-4-yl)-2-methylpyridin-3-yl)oxy)bicyclo[3.1.0]hexane-6-carboxylic Acid], the half-inhibitory concentration (IC50) stood at 162 nM.

For `CCCN(C)C(=O)OCc1c(-c2ccc(O[C@H]3C[C@H](C(=O)O)[C@@H]4C[C@@H]43)c(C)n2)nnn1C` [Example 13], the IC50 is 793 nM.

For `Cc1nc(-c2nnn(C)c2CNC(=O)OCC(C)(C)C)ccc1O[C@@H]1CCC2C(C(=O)O)C21` (some centres unmarked) [Example 54], the IC50 is 275 nM.

Turning to `Cc1nc(-c2nnn(C)c2COC(=O)N(C)CC2CCC2)ccc1O[C@H]1CC2C[C@H]2[C@@H](C(=O)O)C1` (single isomer, unassigned) [Example 9], the IC50 was determined as 582 nM.

As to `Cc1nc(-c2nnn(C)c2NC(=O)OCc2ccccc2)ccc1O[C@@H]1CC[C@H]2C(C(=O)O)[C@@H]12` (some centres unmarked) [Example 64], the IC50 came to 125 nM.

Take `CN(C(=O)OCc1c(-c2ccc(O[C@@H]3C[C@H](C(=O)O)C[C@@H]4C[C@@H]43)cn2)nnn1C)C1CCCC1` (racemic) [Example 72, (±)-(1 S,3R,5R,6S)-5-((6-(5-(((Cyclopentyl(methyl)carbamoyl)oxy)methyl)-1-methyl-1H-1,2,3-triazol-4-yl)pyridin-3-yl)oxy)bicyclo[4.1.0]heptane-3-carboxylic Acid]: the IC50 came to 80 nM.

As to `Cc1nc(-c2nnn(C)c2COC(=O)N(C)CC2CCC2)ccc1O[C@H]1CC[C@@H]2[C@@H](C(=O)O)[C@@H]21` (single isomer, unassigned) [Example 43], the IC50 was found to be 15 nM.

With `Cc1nc(-c2nnn(C)c2NC(=O)OCC2CC2)ccc1O[C@H]1C[C@H](C(=O)O)[C@@H]2C[C@@H]21` [Example 16], the IC50 amounted to 1.43 nM.

Take `Cc1nc(-c2nnn(C)c2COC(=O)N(C)CC2CCC2)ccc1O[C@@H]1C[C@@H]2C[C@@H]2[C@@H](C(=O)O)C1` (single isomer, unassigned) [Example 6]: the half-maximal inhibitory concentration (IC50) was found to be 562 nM.

For `Cc1nc(-c2nnn(C)c2COC(=O)N(C)Cc2ccccc2)ccc1O[C@H]1COC[C@@H](C(=O)O)C1` [Example 29], the IC50 is 594 nM.

Regarding `CN(CC1CCC1)C(=O)OCc1c(-c2ccc(O[C@@H]3CC[C@H]4C(C(=O)O)[C@@H]34)cn2)nnn1C` (some centres unmarked) [Example 70], the IC50 came to 81 nM.

On to `CCCCN(C)C(=O)OCc1c(-c2ccc(O[C@H]3COC[C@@H](C(=O)O)C3)c(C)n2)nnn1C` [Example 30], for which the IC50 was 236 nM.

`CN(CC1CCC1)C(=O)OCc1c(-c2ccc(OC3CC4C(C3)C4C(=O)O)cn2)nnn1C` (centres unmarked) [Example 66]: the IC50 was determined as 322 nM.

With `CN(C(=O)OCc1c(-c2ccc(OC3CC4C(C3)C4C(=O)O)cn2)nnn1C)C1CCCC1` (centres unmarked) [Example 65], the IC50 turned out to be 440 nM.

As for `Cc1nc(-c2nnn(C)c2COC(=O)N(C)CC2CCC2)ccc1O[C@@H]1COC[C@@H](C(=O)O)C1` [Example 21], the IC50 was determined as 168 nM.

For the compound `Cc1nc(-c2nnn(C)c2COC(=O)N(C)C2CCC2)ccc1O[C@@H]1CC[C@H]2C(C(=O)O)[C@@H]12` (some centres unmarked) [Example 61], the IC50 amounted to 98 nM.

Take `Cc1nc(-c2nnn(C)c2COC(=O)N(C)CC2CCC2)ccc1O[C@@H]1CCC[C@@]2(C(=O)O)C[C@@H]12` (racemic) [Example 10, (±)-(1R,5R,6R)-5-((6-(5-((((cyclobutylmethyl)(methyl)carbamoyl)oxy)methyl)-1-methyl-1H-1,2,3-triazol-4-yl)-2-methylpyridin-3-yl)oxy)bicyclo[4.1.0]heptane-1-carboxylic Acid]: the IC50 was determined as 188 nM.

Take `Cc1nc(-c2nnn(C)c2COC(=O)N(C)CC2CCCC2)ccc1OC1COCC(C(=O)O)C1` (racemic) [Example 28, (±)-trans-5-((6-(5-((((cyclopentylmethyl)(methyl)carbamoyl)oxy)methyl)-1-methyl-1H-1,2,3-triazol-4-yl)-2-methylpyridin-3-yl)oxy)tetrahydro-2H-pyran-3-carboxylic Acid, TFA Salt]: the IC50 was 225 nM.

`Cc1nc(-c2nnn(C)c2Cn2ncc(CC3CCCC3)n2)ccc1O[C@H]1COC[C@H](C(=O)O)C1` [Example 27]: the IC50 was found to be 110 nM.

For the compound `CCCCCOC(=O)Nc1c(-c2ccc(O[C@H]3COC[C@H](C(=O)O)C3)c(C)n2)nnn1C` (racemic) [Example 23, (±)-trans-5-((2-methyl-6-(1-methyl-5-(((pentyloxy)carbonyl)amino)-1H-1,2,3-triazol-4-yl)pyridin-3-yl)oxy)tetrahydro-2H-pyran-3-carboxylic Acid, TFA Salt], the IC50 is 157 nM.

As for `Cc1nc(-c2nnn(C)c2COC(=O)N(C)C2CCCC2)ccc1O[C@H]1CCO[C@H](C(=O)O)C1` [Example 39], the IC50 came out at 313 nM.
